Measured values: paper PMC11530827, “Characterization of a cytochrome P450 that catalyzes the O-demethylation of lignin-derived benzoates” (The Journal of Biological Chemistry, 2024)
Read-outs that look alike come from different tables or passages of the source.

Key:
[1] = molecular target: T1, PbdA R84M (Rhodococcus jostii, UniProt Q0SCI3, R82M); assay: Substrate binding to PbdA R84M variant by spectral titration; parameters: species or system Rhodococcus jostii RHA1
T1 construct: hexaHis (N, cleaved yes); made in house; host or cells: PbdA variant: E. coli BL-21 λ (DE3); PbdB: Rhodococcus jostii RHA1
Procedure: (§1) UV-visible spectroscopy was conducted with a Cary 60 spectrophotometer equipped with a thermostatted cuvette holder at 25 °C. Scans of purified proteins diluted in 20 mM Mops, I = 0.1 M, pH 7.2 were taken between 250 and 700 nm. Heme concentration was calculated as described previously ([35]). Carbon monoxide binding was determined by reduction of PbdA diluted in 20 mM Mops, I = 0.1 M, pH 7.2 as above by a few grains of […]. CO was bubbled into the reduced enzyme for approximately 60 s at a rate of one bubble per second. Dissociation constants (Kd) were determined by titration of ligands diluted into enzyme buffer from 1 M stocks prepared in dimethyl sulfoxide into PbdA diluted in 20 mM Mops, I = 0.1 M, pH 7.2. Spectra take upon addition of substrate were subtracted from the spectrum of the enzyme, and peak-to-trough distance was plotted by ligand concentration. Kd values were determined by fitting a hyperbolic equation to the data as described previously ([23], [36]). The proportion of high-spin heme iron was determined using the approximate peak-to-trough extinction coefficient (ε ≈ 100 mM^−1 cm^−1) ([36]).

[2] = molecular target: T2, PbdA S87A (Rhodococcus jostii, UniProt Q0SCI3, S85A); assay: Substrate binding to PbdA S87A variant by spectral titration; parameters: species or system Rhodococcus jostii RHA1
T2 construct: hexaHis (N, cleaved yes); made in house; host or cells: PbdA variant: E. coli BL-21 λ (DE3); PbdB: Rhodococcus jostii RHA1
Procedure: as §1

[3] = molecular target: T3, PbdA S237A (Rhodococcus jostii, UniProt Q0SCI3, S235A); assay: Substrate binding to PbdA S237A variant by spectral titration; parameters: species or system Rhodococcus jostii RHA1
T3 construct: hexaHis (N, cleaved yes); made in house; host or cells: PbdA variant: E. coli BL-21 λ (DE3); PbdB: Rhodococcus jostii RHA1
Procedure: as §1

[4] = molecular target: T4, PbdA S87A/S237A (Rhodococcus jostii, UniProt Q0SCI3, S235A/S85A); assay: Substrate binding to PbdA S87A/S237A variant by spectral titration; parameters: species or system Rhodococcus jostii RHA1
T4 construct: hexaHis (N, cleaved yes); made in house; host or cells: PbdA variant: E. coli BL-21 λ (DE3); PbdB: Rhodococcus jostii RHA1
Procedure: as §1

[5] = molecular target: T5, PbdA (Rhodococcus jostii, UniProt Q0SCI3); conditions: WT PbdAB, SD in parentheses; for NADH depletion rate: air-saturated MOPS (I = 0.1 M), pH 7.2, 25 °C; for Rate of Aromatic turnover: appearance of O-demethylated product (disappearance of p-EB)
T5 sequence (Q0SCI3 1-400): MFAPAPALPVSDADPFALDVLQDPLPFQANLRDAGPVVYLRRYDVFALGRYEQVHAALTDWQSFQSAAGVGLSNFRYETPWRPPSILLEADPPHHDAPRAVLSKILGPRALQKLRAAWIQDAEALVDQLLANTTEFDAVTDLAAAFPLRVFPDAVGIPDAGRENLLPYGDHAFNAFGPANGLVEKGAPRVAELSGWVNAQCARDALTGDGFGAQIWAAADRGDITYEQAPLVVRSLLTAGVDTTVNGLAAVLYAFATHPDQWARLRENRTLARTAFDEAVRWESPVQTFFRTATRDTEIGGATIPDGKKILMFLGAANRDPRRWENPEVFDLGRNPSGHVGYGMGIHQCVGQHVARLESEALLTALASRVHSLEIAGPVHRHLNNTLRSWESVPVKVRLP
Procedure: We then measured coupling under optimum conditions for other substrates. […] Finally, we measured the apparent steady-state kinetic parameters of the PbdA reaction under conditions of maximal coupling (Fig. S4).
(§2) For activity measurements 0.25 to 1 μM of PbdA and PbdB were combined in a 200 μl cuvette in 20 mM Mops, pH 7.2 with substrate diluted in the same buffer. NADH was added to 350 μM to initiate the reaction. For HPLC analysis, enzymatic reactions were acidified by adding acetic acid to 10% final concentration, centrifuged (16,000×g for 10 min), and filtered through a 0.2 μm polytetrafluoroethylene membrane. Samples were run over a Luna 5 μm C18(2) 100 Å 150 × 3 mm column (Phenomenex) at 0.7 ml min^−1 by a Waters 2695 separation HPLC module. Samples were eluted with a 16.8 ml linear gradient from 1% methanol plus 0.1% formic acid in water to 100% methanol plus 0.1% formic acid and monitored at 280 nm with a Waters 2996 photodiode array detector. Concentrations were determined by interpolation on a standard curve of 0 to 1 mM of authentic standard. NADH concentration was measured by absorbance at 340 nm, ε = 6.22 mM^-1 cm^-1. Coupling was calculated from the ratio of rate of aromatic turnover, as determined by HPLC, and the rate of NADH oxidation, determined spectroscopically. Buffer ionic strength was adjusted by addition of NaCl, as appropriate. Apparent steady-state kinetic parameters were calculated by fitting Michaelis–Menten equations to initial velocity of reactions at various concentrations of aromatic substrate (LEONORA).

[6] = molecular target: T1, PbdA R84M; assay: Activity and coupling assay of PbdA R84M variant with PbdB; assay type: biochemical, Rhodococcus jostii RHA1; conditions: air-saturated MOPS (I = 0.1 M), pH 7.2, 25 °C
Procedure: as §2
(§3) ^aExperiments were performed using air-saturated MOPS (I = 0.1 M), pH 7.2, at 25 °C. The rate of aromatic substrate turnover was based on the appearance of O-demethylated product. Standard deviation is shown in parentheses.

[7] = molecular target: T2, PbdA S87A; assay: Activity and coupling assay of PbdA S87A variant with PbdB; assay type: biochemical, Rhodococcus jostii RHA1; conditions: for NADH depletion rate: air-saturated MOPS (I = 0.1 M), pH 7.2, 25 °C
Procedure: as §2, §3

[8] = molecular target: T3, PbdA S237A; assay: Activity and coupling assay of PbdA S237A variant with PbdB; assay type: biochemical, Rhodococcus jostii RHA1; conditions: for NADH depletion rate: air-saturated MOPS (I = 0.1 M), pH 7.2, 25 °C
Procedure: as §2, §3

[9] = molecular target: T4, PbdA S87A/S237A; assay: Activity and coupling assay of PbdA S87A/S237A variant with PbdB; assay type: biochemical, Rhodococcus jostii RHA1; conditions: for NADH depletion rate: air-saturated MOPS (I = 0.1 M), pH 7.2, 25 °C
Procedure: as §2, §3

[10] = system: CYP199A4; parameters: method as in PMID 26969786; conditions: cited from earlier work
[11] = molecular target: T5, PbdA; assay: Substrate binding to PbdA (WT) by type I spectral shift titration; parameters: hexaHis (N, cleaved yes); made in house; host or cells: PbdA: E. coli BL-21 λ (DE3); PbdB: Rhodococcus jostii RHA1; conditions: for %High-spin (percent of heme iron in high-spin state): on substrate binding
Procedure: The affinity of PbdA for various LDACs was measured by the type I spectral shift upon titration of aromatic compound (Fig. 2). This shift occurs as the compound displaces a water coordinated to the heme iron, initiating a spin state transition in the latter from a low spin, hexacoordinate, to a high spin, pentacoordinate form.
Figure 2 Substrate binding of PbdA. A, difference spectra of PbdA titrated with 1 to 50 μM p-MBA from the substrate-free enzyme. Darker colors indicate higher concentration of p-MBA. Spectra were collected after each addition of substrate to 1 μM enzyme in 20 mM Mops, I = 0.1 M, pH 7.2. B, binding isotherm of PbdA and p-MBA. The fitted curve represents a simple hyperbola. p-MBA, para-methoxybenzoate.
as §1

[12] = substrate: COc1ccc(C(=O)O)cc1O; assay: purified protein, by the assay type; conditions: other: WT PbdA with PbdB, air-saturated Mops (I = 0.1 M), pH 7.2, 25 °C, SD in parentheses
[13] = appearance of O-demethylated product

T4 sequence (Q0SCI3 entry or part of it S85A/S235A): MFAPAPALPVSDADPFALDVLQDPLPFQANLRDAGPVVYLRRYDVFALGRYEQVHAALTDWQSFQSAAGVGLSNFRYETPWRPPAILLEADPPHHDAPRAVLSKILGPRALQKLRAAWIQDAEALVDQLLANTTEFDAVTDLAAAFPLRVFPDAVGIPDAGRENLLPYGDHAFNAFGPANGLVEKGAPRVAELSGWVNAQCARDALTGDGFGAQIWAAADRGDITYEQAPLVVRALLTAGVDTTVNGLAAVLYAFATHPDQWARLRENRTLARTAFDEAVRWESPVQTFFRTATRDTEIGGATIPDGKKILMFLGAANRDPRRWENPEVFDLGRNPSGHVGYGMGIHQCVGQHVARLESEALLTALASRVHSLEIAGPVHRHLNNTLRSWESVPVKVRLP
T2 sequence (Q0SCI3 entry or part of it S85A): as the sequence (Q0SCI3 entry or part of it S85A/S235A) above, with A235S counted along it
T3 sequence (Q0SCI3 entry or part of it S235A): as the sequence (Q0SCI3 entry or part of it S85A/S235A) above, with A85S counted along it
T1 sequence (Q0SCI3 entry or part of it R82M): as the sequence (Q0SCI3 entry or part of it S85A/S235A) above, with R82M, A85S, A235S counted along it

For COc1ccc(C(C)=O)cc1 [p-MAP, p-methoxyacetophenone], the Kd [1] was 8 µM, the Kd [2] was 14 µM and the Kd [3] was 12 µM. For the same molecule, the Kd [4] was 8 µM, the NADH depletion rate [5] was 117 (6) U mg P450^-1 and the “Rate of Aromatic turnover” value [5] was “did not detectably O-demethylate”. For the same molecule, the NADH depletion rate [6] was 170 (30) U mg P450^-1, the NADH depletion rate [7] was 265 (7) U mg P450^-1 and the NADH depletion rate [8] was 220 (6) U mg P450^-1. The NADH depletion rate [9] was 160 (30) U mg P450^-1, the “O-demethylation rate relative to that of p-MBA” value [10] was 0.25% and the Kd ([11]; WT PbdA, 20 mM Mops, I = 0.1 M, pH 7.2, 25 °C, SD in parentheses, read-out: Kd) was 37 µM. For the same molecule, the “%High-spin (percent of heme iron in high-spin state)” value ([11]; WT PbdA) was 2.8%.

In the case of COc1ccc(C=O)cc1 [p-MBAL, p-methoxybenzaldehyde], the Kd [1] is reported as 7 µM, the Kd [2] is reported as 16 µM and the Kd [3] is reported as 12 µM. For the same molecule, the Kd [4] was 8 µM, the NADH depletion rate [5] was 140 (30) U mg P450^-1 and the “Rate of Aromatic turnover” value [5] was “did not detectably O-demethylate”. The NADH depletion rate [6] was 170 (10) U mg P450^-1, the Coupling [7] was 27 (7) % and the Specific activity ([7]; O-demethylation) was 80 (30) U μg P450^-1. The NADH depletion rate [7] was 290 (20) U mg P450^-1, the “Rate of Aromatic turnover” value [7, 13] was 80 (30) U mg P450^-1 and the Coupling [8] was 9 (3) %. The Specific activity ([8]; O-demethylation) was 27 (2) U μg P450^-1, the NADH depletion rate [8] was 300 (50) U mg P450^-1 and the “Rate of Aromatic turnover” value [8, 13] was 30 (3) U mg P450^-1. The Coupling [9] was 90 (20) %, the Specific activity ([9]; O-demethylation) was 180 (20) U μg P450^-1 and the NADH depletion rate [9] was 200 (4) U mg P450^-1. For the same molecule, the “Rate of Aromatic turnover” value [9, 13] was 180 (40) U mg P450^-1, the “O-demethylation rate relative to that of p-MBA” value [10] was 0.1% and the Kd [11] was 11 µM. For the same molecule, the “%High-spin (percent of heme iron in high-spin state)” value ([11]; WT PbdA) was 7.9%.

B1: PbdA (Rhodococcus jostii RHA1) (protein)
chain: MFAPAPALPVSDADPFALDVLQDPLPFQANLRDAGPVVYLRRYDVFALGRYEQVHAALTDWQSFQSAAGVGLSNFRYETPWRPPSILLEADPPHHDAPRAVLSKILGPRALQKLRAAWIQDAEALVDQLLANTTEFDAVTDLAAAFPLRVFPDAVGIPDAGRENLLPYGDHAFNAFGPANGLVEKGAPRVAELSGWVNAQCARDALTGDGFGAQIWAAADRGDITYEQAPLVVRSLLTAGVDTTVNGLAAVLYAFATHPDQWARLRENRTLARTAFDEAVRWESPVQTFFRTATRDTEIGGATIPDGKKILMFLGAANRDPRRWENPEVFDLGRNPSGHVGYGMGIHQCVGQHVARLESEALLTALASRVHSLEIAGPVHRHLNNTLRSWESVPVKVRLP
For B1, the Km [12] was 30 (10) μM, the kcat [12] was 0.15 s⁻¹ and the kcat/Km [12] was 5000 M⁻¹ s⁻¹.
